PubChem BioAssay (NCI)
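Five concentrations, 48 hours, 96-well plates. GI50: concentration for 50% inhibition of growth. TGI is the concentration that stops growth completely.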

Tests used:
Assay in all cases: NCI-60 cell line screen, 48 h
786-0 renal = test system: 786-0 renal
A498 renal = test system: A498 renal
A549 NSCLC = test system: A549 NSCLC
ACHN renal = test system: ACHN renal
BT-549 breast = test system: BT-549 breast
CAKI-1 renal = test system: CAKI-1 renal
CCRF-CEM leukemia = test system: CCRF-CEM leukemia
COLO 205 colon = test system: COLO 205 colon
DU-145 prostate = test system: DU-145 prostate
EKVX NSCLC = test system: EKVX NSCLC
HCC-2998 colon = test system: HCC-2998 colon
HCT-116 colon = test system: HCT-116 colon
HCT-15 colon = test system: HCT-15 colon
HL-60(TB) leukemia = test system: HL-60(TB) leukemia
HOP-62 NSCLC = test system: HOP-62 NSCLC
HOP-92 NSCLC = test system: HOP-92 NSCLC
HS 578T breast = test system: HS 578T breast
HT29 colon = test system: HT29 colon
IGROV1 ovarian = test system: IGROV1 ovarian
K-562 leukemia = test system: K-562 leukemia
KM12 colon = test system: KM12 colon
LOX IMVI melanoma = test system: LOX IMVI melanoma
M14 melanoma = test system: M14 melanoma
MALME-3M melanoma = test system: MALME-3M melanoma
MCF7 breast = test system: MCF7 breast
MDA-MB-231 breast = test system: MDA-MB-231 breast
MDA-MB-435 = test system: MDA-MB-435
MOLT-4 leukemia = test system: MOLT-4 leukemia
NCI-H226 lung = test system: NCI-H226 lung
NCI-H23 lung = test system: NCI-H23 lung
NCI-H460 lung = test system: NCI-H460 lung
NCI-H522 lung = test system: NCI-H522 lung
NCI/ADR-RES ovarian = test system: NCI/ADR-RES ovarian
OVCAR-3 ovarian = test system: OVCAR-3 ovarian
OVCAR-4 ovarian = test system: OVCAR-4 ovarian
OVCAR-5 ovarian = test system: OVCAR-5 ovarian
OVCAR-8 ovarian = test system: OVCAR-8 ovarian
PC-3 prostate = test system: PC-3 prostate
RPMI-8226 leukemia = test system: RPMI-8226 leukemia
RXF 393 renal = test system: RXF 393 renal
SF-268 CNS = test system: SF-268 CNS
SF-295 CNS = test system: SF-295 CNS
SF-539 CNS = test system: SF-539 CNS
SK-MEL-2 melanoma = test system: SK-MEL-2 melanoma
SK-MEL-28 melanoma = test system: SK-MEL-28 melanoma
SK-MEL-5 melanoma = test system: SK-MEL-5 melanoma
SK-OV-3 ovarian = test system: SK-OV-3 ovarian
SN12C renal = test system: SN12C renal
SNB-19 CNS = test system: SNB-19 CNS
SNB-75 CNS = test system: SNB-75 CNS
SR leukemia = test system: SR leukemia
SW-620 colon = test system: SW-620 colon
T-47D breast = test system: T-47D breast
TK-10 renal = test system: TK-10 renal
U251 CNS = test system: U251 CNS
UACC-257 melanoma = test system: UACC-257 melanoma
UACC-62 melanoma = test system: UACC-62 melanoma
UO-31 renal = test system: UO-31 renal

COc1ccc(/C=N\NC(=O)c2ccc3nc(-c4ccc(Cl)cc4)[nH]c3c2)cc1
GI50 (786-0 renal): 1.93 µM
TGI (786-0 renal): 3.67 µM
GI50 (A498 renal): 2.45 µM
TGI (A498 renal): 9.87 µM
GI50 (A549 NSCLC): 2.46 µM
TGI (A549 NSCLC): 5.65 µM
GI50 (ACHN renal): 2 µM
TGI (ACHN renal): 5.04 µM
GI50 (BT-549 breast): 3.36 µM
TGI (BT-549 breast): 16.4 µM
GI50 (CAKI-1 renal): 2.1 µM
TGI (CAKI-1 renal): 6.03 µM
GI50 (CCRF-CEM leukemia): 4.9 µM
TGI (CCRF-CEM leukemia): > 100 µM
GI50 (COLO 205 colon): 1.94 µM
TGI (COLO 205 colon): 5.43 µM
GI50 (DU-145 prostate): 1.98 µM
TGI (DU-145 prostate): 4.61 µM
GI50 (EKVX NSCLC): 2.11 µM
TGI (EKVX NSCLC): 5.84 µM
GI50 (HCC-2998 colon): 2.57 µM
TGI (HCC-2998 colon): 6.44 µM
GI50 (HCT-116 colon): 2.14 µM
TGI (HCT-116 colon): 5.12 µM
GI50 (HCT-15 colon): 3.24 µM
TGI (HCT-15 colon): 12.8 µM
GI50 (HL-60(TB) leukemia): 13 µM
TGI (HL-60(TB) leukemia): > 100 µM
GI50 (HOP-62 NSCLC): 1.88 µM
TGI (HOP-62 NSCLC): 6.37 µM
GI50 (HOP-92 NSCLC): 1.52 µM
TGI (HOP-92 NSCLC): 4.11 µM
GI50 (HS 578T breast): 2.3 µM
TGI (HS 578T breast): 5.64 µM
GI50 (HT29 colon): 3.09 µM
TGI (HT29 colon): 22.1 µM
GI50 (IGROV1 ovarian): 1.65 µM
TGI (IGROV1 ovarian): 3.97 µM
GI50 (K-562 leukemia): 2.69 µM
TGI (K-562 leukemia): 11.2 µM
GI50 (KM12 colon): 3.03 µM
TGI (KM12 colon): 9.58 µM
GI50 (LOX IMVI melanoma): 2.19 µM
TGI (LOX IMVI melanoma): 4.01 µM
GI50 (M14 melanoma): 2.41 µM
TGI (M14 melanoma): 7.76 µM
GI50 (MALME-3M melanoma): 1.67 µM
TGI (MALME-3M melanoma): 3.63 µM
GI50 (MCF7 breast): 1.47 µM
TGI (MCF7 breast): 3.84 µM
GI50 (MDA-MB-231 breast): 2.42 µM
TGI (MDA-MB-231 breast): 5.45 µM
GI50 (MDA-MB-435): 3.11 µM
TGI (MDA-MB-435): 9.84 µM
GI50 (MOLT-4 leukemia): 4.53 µM
TGI (MOLT-4 leukemia): 30.4 µM
GI50 (NCI-H226 lung): 1.79 µM
TGI (NCI-H226 lung): 4.43 µM
GI50 (NCI-H23 lung): 2.74 µM
TGI (NCI-H23 lung): 11.2 µM
GI50 (NCI-H460 lung): 1.83 µM
TGI (NCI-H460 lung): 3.59 µM
GI50 (NCI-H522 lung): 7.6 µM
TGI (NCI-H522 lung): 81.5 µM
GI50 (NCI/ADR-RES ovarian): 7.81 µM
TGI (NCI/ADR-RES ovarian): > 100 µM
GI50 (OVCAR-3 ovarian): 2.28 µM
TGI (OVCAR-3 ovarian): 5.14 µM
GI50 (OVCAR-4 ovarian): 1.79 µM
TGI (OVCAR-4 ovarian): 3.36 µM
GI50 (OVCAR-5 ovarian): 2.35 µM
TGI (OVCAR-5 ovarian): 6.89 µM
GI50 (OVCAR-8 ovarian): 3.19 µM
TGI (OVCAR-8 ovarian): 11.5 µM
GI50 (PC-3 prostate): 1.66 µM
TGI (PC-3 prostate): 3.76 µM
GI50 (RPMI-8226 leukemia): 0.997 µM
TGI (RPMI-8226 leukemia): 4.77 µM
GI50 (RXF 393 renal): 1.86 µM
TGI (RXF 393 renal): 3.8 µM
GI50 (SF-268 CNS): 2.09 µM
TGI (SF-268 CNS): 5.1 µM
GI50 (SF-295 CNS): 2.23 µM
TGI (SF-295 CNS): 5.05 µM
GI50 (SF-539 CNS): 1.73 µM
TGI (SF-539 CNS): 3.46 µM
GI50 (SK-MEL-2 melanoma): 3.59 µM
TGI (SK-MEL-2 melanoma): 13.8 µM
GI50 (SK-MEL-28 melanoma): 1.79 µM
TGI (SK-MEL-28 melanoma): 3.37 µM
GI50 (SK-MEL-5 melanoma): 1.89 µM
TGI (SK-MEL-5 melanoma): 3.88 µM
GI50 (SK-OV-3 ovarian): 2.3 µM
TGI (SK-OV-3 ovarian): 12.8 µM
GI50 (SN12C renal): 2.46 µM
TGI (SN12C renal): 6.79 µM
GI50 (SNB-19 CNS): 3.13 µM
TGI (SNB-19 CNS): 7.95 µM
GI50 (SNB-75 CNS): 1.53 µM
TGI (SNB-75 CNS): 4.58 µM
GI50 (SR leukemia): 2.87 µM
TGI (SR leukemia): 15.4 µM
GI50 (SW-620 colon): 2.41 µM
TGI (SW-620 colon): 5.58 µM
GI50 (T-47D breast): 1.94 µM
TGI (T-47D breast): 4.83 µM
GI50 (TK-10 renal): 2.95 µM
TGI (TK-10 renal): 6.59 µM
GI50 (U251 CNS): 2.43 µM
TGI (U251 CNS): 5.22 µM
GI50 (UACC-257 melanoma): 3.27 µM
TGI (UACC-257 melanoma): 10.1 µM
GI50 (UACC-62 melanoma): 1.94 µM
TGI (UACC-62 melanoma): 4.47 µM
GI50 (UO-31 renal): 1.86 µM
TGI (UO-31 renal): 6.38 µM
